# Assay results taken from ChEMBL document CHEMBL4152269, “New N-phenylpyrrolamide DNA gyrase B inhibitors: Optimization of efficacy and antibacterial activity” (Eur J Med Chem, 2018).
# Key:
# Staphylococcus aureus [1] = assay: Growth inhibition of Staphylococcus aureus ATCC 25923 at 50 uM after 24 hrs by broth microdilution method relative to control; type: functional; details: ATCC 25923, 24 h, read-out: GI
# Enterococcus faecalis [2] = assay: Growth inhibition of Enterococcus faecalis ATCC 29212 at 50 uM after 24 hrs by broth microdilution method relative to control; type: functional; details: ATCC 29212, 24 h, read-out: GI
# Escherichia coli [3] = assay: Growth inhibition of Escherichia coli ATCC 25922 at 50 uM after 24 hrs by broth microdilution method relative to control; type: functional; details: ATCC 25922, 24 h, read-out: GI
# Pseudomonas aeruginosa = assay: Growth inhibition of Pseudomonas aeruginosa ATCC 27853 at 50 uM after 24 hrs by broth microdilution method relative to control; type: functional; details: ATCC 27853, 24 h, read-out: GI
# Escherichia coli [4] = assay: Growth inhibition of tolC deficient Escherichia coli JW5503 at 50 uM after 24 hrs by broth microdilution method relative to control; type: functional; details: JW5503, 24 h, read-out: GI
# Escherichia coli [5] = assay: Growth inhibition of lpxC deficient Escherichia coli JD17464 at 50 uM after 24 hrs by broth microdilution method relative to control; type: functional; details: JD17464, 24 h, read-out: GI
# [6] = target: DNA gyrase subunit B (Staphylococcus aureus) (UniProt P0A0K8); assay: (§1) Inhibition of Staphylococcus aureus DNA gyrase B assessed as residual activity at 1 uM preincubated for 10 mins followed by ATP addition measured after 30 mins by purine nucleoside phosphorylase enzyme coupled spectrophotometric method relative to control
# Chain of DNA gyrase subunit B (Staphylococcus aureus) (P0A0K8 2-644 limits assumed): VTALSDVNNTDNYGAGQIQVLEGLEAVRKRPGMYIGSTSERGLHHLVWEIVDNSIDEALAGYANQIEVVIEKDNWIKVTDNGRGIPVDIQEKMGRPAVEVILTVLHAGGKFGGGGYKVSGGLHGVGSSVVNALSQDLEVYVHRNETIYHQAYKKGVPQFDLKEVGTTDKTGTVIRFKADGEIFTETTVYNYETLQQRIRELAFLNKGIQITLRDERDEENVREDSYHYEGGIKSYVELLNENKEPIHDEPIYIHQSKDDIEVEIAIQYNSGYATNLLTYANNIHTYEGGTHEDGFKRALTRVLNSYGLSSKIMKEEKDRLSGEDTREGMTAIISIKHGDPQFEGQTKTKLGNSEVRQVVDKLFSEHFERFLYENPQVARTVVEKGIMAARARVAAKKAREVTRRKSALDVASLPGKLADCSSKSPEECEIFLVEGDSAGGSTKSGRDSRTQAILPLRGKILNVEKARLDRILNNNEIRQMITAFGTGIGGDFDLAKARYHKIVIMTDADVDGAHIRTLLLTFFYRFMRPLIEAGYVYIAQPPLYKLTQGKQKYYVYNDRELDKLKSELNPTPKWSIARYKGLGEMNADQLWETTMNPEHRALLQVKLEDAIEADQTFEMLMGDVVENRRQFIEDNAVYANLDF
# Escherichia coli [7] = assay: as §1, with “Escherichia coli C-terminal His6-tagged topoisomerase-4 expressed in Escherichia coli BL21(DE3)” for “Staphylococcus aureus DNA gyrase B”
# [8] = Inhibition of Staphylococcus aureus topoisomerase-4 assessed as residual activity preincubated for 10 mins followed by ATP addition measured after 30 mins by purine nucleoside phosphorylase enzyme coupled spectrophotometric method
# DNA gyrase subunit B [9] = target: DNA gyrase subunit B (Escherichia coli, UniProt P0AES6); assay: Inhibition of Escherichia coli DNA gyrase by supercoiling assay
# Staphylococcus aureus [10] = assay: Inhibition of Staphylococcus aureus topoisomerase-4 assessed as residual activity at 1 uM preincubated for 10 mins followed by ATP addition measured after 30 mins by purine nucleoside phosphorylase enzyme coupled spectrophotometric method relative to control
# DNA gyrase subunit B [11] = target: DNA gyrase subunit B (Staphylococcus aureus, UniProt P0A0K8); assay: Inhibition of Staphylococcus aureus DNA gyrase B preincubated for 10 mins followed by ATP addition measured after 30 mins by purine nucleoside phosphorylase enzyme coupled spectrophotometric method
# Chain of DNA gyrase subunit B (Staphylococcus aureus, UniProt P0A0K8) (P0A0K8 whole entry): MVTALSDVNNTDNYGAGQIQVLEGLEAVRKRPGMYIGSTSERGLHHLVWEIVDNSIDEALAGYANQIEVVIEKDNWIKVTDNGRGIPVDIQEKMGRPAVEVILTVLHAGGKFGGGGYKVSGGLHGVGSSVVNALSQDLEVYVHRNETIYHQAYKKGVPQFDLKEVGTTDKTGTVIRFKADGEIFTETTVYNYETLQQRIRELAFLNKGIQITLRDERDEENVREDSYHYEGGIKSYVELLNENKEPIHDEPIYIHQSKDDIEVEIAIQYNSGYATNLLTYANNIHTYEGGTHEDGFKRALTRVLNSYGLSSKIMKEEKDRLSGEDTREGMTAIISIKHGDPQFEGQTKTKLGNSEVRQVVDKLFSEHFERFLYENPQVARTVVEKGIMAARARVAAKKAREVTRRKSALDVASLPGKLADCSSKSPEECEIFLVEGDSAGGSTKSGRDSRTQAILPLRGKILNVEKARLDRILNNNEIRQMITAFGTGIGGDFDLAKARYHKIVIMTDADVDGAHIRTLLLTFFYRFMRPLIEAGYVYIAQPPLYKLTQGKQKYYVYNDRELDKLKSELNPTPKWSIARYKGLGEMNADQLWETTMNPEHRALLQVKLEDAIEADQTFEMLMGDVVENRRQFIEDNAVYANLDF
# [12] = Inhibition of Escherichia coli C-terminal His6-tagged topoisomerase-4 expressed in Escherichia coli BL21(DE3) preincubated for 10 mins followed by ATP addition measured after 30 mins by purine nucleoside phosphorylase enzyme coupled spectrophotometric method
# Enterococcus faecalis [13] = assay: Antibacterial activity against Enterococcus faecalis ATCC 29212 after 18 hrs by broth microdilution method; type: functional; details: ATCC 29212, 18 h
# Escherichia coli [14] = assay: Antibacterial activity against tolC deficient Escherichia coli JW5503 after 18 hrs by broth microdilution method; type: functional; details: JW5503, 18 h
SMILES,inhibition of growth at 50 µM (Staphylococcus aureus [1]) [%],inhibition of growth at 50 µM (Enterococcus faecalis [2]) [%],inhibition of growth at 50 µM (Escherichia coli [3]) [%],inhibition of growth at 50 µM (Pseudomonas aeruginosa) [%],inhibition of growth at 50 µM (Escherichia coli [4]) [%],inhibition of growth at 50 µM (Escherichia coli [5]) [%],Activity [6] [%],Activity (Escherichia coli [7]) [%],IC50 [8] [nM],IC50 (DNA gyrase subunit B [9]) [nM],Activity (Staphylococcus aureus [10]) [%],IC50 (DNA gyrase subunit B [11]) [nM],IC50 [12] [nM],MIC90 (Enterococcus faecalis [13]) [µM],MIC90 (Escherichia coli [14]) [µM]
COC(=O)[C@@H](C)NC(=O)c1ccc(NC(=O)c2[nH]c(C)c(Cl)c2Cl)c(OC(C)C)c1,29,-41,12,5,11,27,–,–,–,–,–,–,–,–,–
COC(=O)CNC(=O)c1ccc(NC(=O)c2[nH]c(C)c(Cl)c2Cl)cc1OC(C)C,-5,44,6,-5,–,–,–,–,–,–,–,–,–,–,–
O=C(O)CNC(=O)c1ccc(NC(=O)c2cc(Br)c(Br)[nH]2)cc1OCc1ccccc1,19,2,10,-2,–,–,79,100,39000,88,–,–,–,–,–
CC(C)Oc1cc(NC(=O)c2cc(Br)c(Br)[nH]2)ccc1C(=O)NCC(=O)O,13,14,9,-8,–,–,85,–,–,400,96,–,–,–,–
Cc1[nH]c(C(=O)Nc2ccc(C(=O)N[C@@H](C)C(=O)O)cc2OCCNC(=O)OC(C)(C)C)c(Cl)c1Cl,-11,-1,5,5,11,14,–,–,–,590,99,1300,–,–,–
Cc1[nH]c(C(=O)Nc2ccc(C(=O)N[C@H](C)C(=O)O)cc2OC(C)C)c(Cl)c1Cl,59,101,4,-1,52,5,–,–,1300,41,–,1600,7400,6.25,–
COC(=O)[C@@H](NC(=O)c1ccc(NC(=O)c2cc(Br)c(Br)[nH]2)c(OC(C)C)c1)C(C)C,33,59,13,6,-9,22,–,–,–,–,–,–,–,–,–
NCCOc1cc(C(=O)NCC(=O)O)ccc1NC(=O)c1cc(Br)c(Br)[nH]1,-2,0,0,11,-8,-5,–,–,–,–,–,–,–,–,–
Cc1[nH]c(C(=O)Nc2ccc(C(=O)N[C@@H](Cc3ccccc3)C(=O)O)cc2OC(C)C)c(Cl)c1Cl,-57,99,-2,4,8,1,–,–,–,–,–,–,–,3.13,–
Cc1[nH]c(C(=O)Nc2ccc(C(=O)N[C@@H](C)c3n[nH]c(=O)o3)cc2OCCNC(=O)OC(C)(C)C)c(Cl)c1Cl,3,86,-1,31,-5,2,–,–,–,1600,–,–,–,100,–
COC(=O)[C@H](Cc1ccccc1)NC(=O)c1ccc(NC(=O)c2[nH]c(C)c(Cl)c2Cl)c(OC(C)C)c1,-3,74,13,6,-5,25,–,–,–,–,–,–,–,–,–
Cc1[nH]c(C(=O)Nc2ccc(C(=O)N[C@@H](C)C(=O)NN)cc2OCCNC(=O)OC(C)(C)C)c(Cl)c1Cl,7,64,5,12,13,19,–,–,–,–,–,–,–,–,–
CN(C)CCOc1cc(NC(=O)c2cc(Br)c(Br)[nH]2)ccc1C(=O)NCC(=O)O,28,14,7,4,–,–,–,–,–,–,–,–,–,–,–
CC(C)(C)OC(=O)NCCOc1cc(C(=O)NCC(=O)O)ccc1NC(=O)c1cc(Br)c(Br)[nH]1,7,1,2,9,5,-2,–,–,–,–,–,–,–,–,–
Cc1[nH]c(C(=O)Nc2ccc(C(=O)N[C@@H](C)c3n[nH]c(=O)o3)cc2OCCN)c(Cl)c1Cl,0,-6,1,16,88,13,–,–,960,13,–,1000,570,–,50
CC(C)Oc1cc(C(=O)N[C@H](C(=O)O)C(C)C)ccc1NC(=O)c1cc(Br)c(Br)[nH]1,-13,80,-2,11,18,-1,–,–,–,–,–,–,–,> 75,–
Cc1[nH]c(C(=O)Nc2ccc(C(=O)N[C@@H](C)C(=O)O)cc2OC(C)C)c(Cl)c1Cl,-21,100,0,8,97,-10,–,–,280,38,–,93,450,3.13,50
COC(=O)[C@H](C)NC(=O)c1ccc(NC(=O)c2[nH]c(C)c(Cl)c2Cl)c(OC(C)C)c1,-45,57,0,8,-12,6,–,–,–,–,–,–,–,–,–
Cc1[nH]c(C(=O)Nc2ccc(C(=O)N[C@@H](C)C(=O)NN)cc2OC(C)C)c(Cl)c1Cl,5,99,7,9,7,3,–,–,–,280,92,22000,–,6.25,–
CC(C)Oc1cc(C(=O)N[C@@H](C)C(=O)O)ccc1NC(=O)c1cc(Br)c(Br)[nH]1,-18,70,0,10,6,-15,–,78,–,370,98,5900,–,–,–
COC(=O)[C@H](Cc1ccccc1)NC(=O)c1ccc(NC(=O)c2cc(Br)c(Br)[nH]2)c(OCCN)c1,103,102,9,28,103,23,–,–,–,–,–,–,–,50,25
COC(=O)[C@H](C)NC(=O)c1ccc(NC(=O)c2cc(Br)c(Br)[nH]2)c(OC(C)C)c1,42,65,5,9,97,11,–,–,–,–,–,–,–,–,25
Cc1[nH]c(C(=O)Nc2ccc(C(=O)NCC(=O)O)c(OC(C)C)c2)c(Cl)c1Cl,-9,75,12,11,–,–,–,–,12000,91,–,140,–,–,–
Cc1[nH]c(C(=O)Nc2ccc(C(=O)N[C@@H](C)C(=O)O)cc2OCCN)c(Cl)c1Cl,17,36,4,10,-4,5,–,–,3200,28,–,110,530,–,–
